Converted amounts (≈) assume the structure as drawn.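 Five compound concentrations were applied to cells in 96-well plates for 48 hours; endpoints were derived by simple linear interpolation of the resulting dose-response curve. Abbreviation: GI50, concentration required for 50% inhibition of growth. At the TGI there is no net growth.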 Where a SMILES comes first, the peptide text is derived from it. The star is where a group is joined. Boc = CC(C)(C)OC(=O)*; OBn = c1ccc(CO*)cc1
Tests used:
Assay in all cases: DTP human tumour cell line panel, 48 h
[1] = system: 786-0 renal
[2] = system: A498 renal
[3] = system: A549 NSCLC
[4] = system: ACHN renal
[5] = system: BT-549 breast
[6] = system: CAKI-1 renal
[7] = system: CCRF-CEM leukemia
[8] = system: COLO 205 colon
[9] = system: DU-145 prostate
[10] = system: EKVX NSCLC
[11] = system: HCC-2998 colon
[12] = system: HCT-116 colon
[13] = system: HCT-15 colon
[14] = system: HOP-62 NSCLC
[15] = system: HOP-92 NSCLC
[16] = system: HS 578T breast
[17] = system: HT29 colon
[18] = system: K-562 leukemia
[19] = system: KM12 colon
[20] = system: LOX IMVI melanoma
[21] = system: M14 melanoma
[22] = system: MALME-3M melanoma
[23] = system: MCF7 breast
[24] = system: MDA-MB-231 breast
[25] = system: MDA-MB-435
[26] = system: MOLT-4 leukemia
[27] = system: NCI-H226 lung
[28] = system: NCI-H23 lung
[29] = system: NCI-H460 lung
[30] = system: NCI-H522 lung
[31] = system: OVCAR-3 ovarian
[32] = system: OVCAR-4 ovarian
[33] = system: OVCAR-5 ovarian
[34] = system: OVCAR-8 ovarian
[35] = system: PC-3 prostate
[36] = system: RPMI-8226 leukemia
[37] = system: SF-268 CNS
[38] = system: SF-295 CNS
[39] = system: SF-539 CNS
[40] = system: SK-MEL-2 melanoma
[41] = system: SK-MEL-28 melanoma
[42] = system: SK-MEL-5 melanoma
[43] = system: SK-OV-3 ovarian
[44] = system: SN12C renal
[45] = system: SNB-19 CNS
[46] = system: SNB-75 CNS
[47] = system: SW-620 colon
[48] = system: T-47D breast
[49] = system: TK-10 renal
[50] = system: U251 CNS
[51] = system: UACC-62 melanoma
[52] = system: UO-31 renal
[53] = system: HL-60(TB) leukemia
[54] = system: IGROV1 ovarian
[55] = system: NCI/ADR-RES ovarian
[56] = system: UACC-257 melanoma

## CC(=O)/C=C/C1=C(c2ccsc2)c2ccccc2CC1
[1]
  GI50: 34.1 µM
  TGI: > 100 µM
[2]
  GI50: 24.7 µM
  TGI: 69.7 µM
[3]
  GI50: 17.4 µM
  TGI: 37.5 µM
[4]
  GI50: 25.9 µM
  TGI: 61.1 µM
[5]
  GI50: 29.5 µM
  TGI: 69.3 µM
[6]
  GI50: 27.7 µM
  TGI: 83.4 µM
[7]
  GI50: 23.6 µM
  TGI: 47.6 µM
[8]
  GI50: 36.5 µM
  TGI: > 100 µM
[9]
  GI50: 40.8 µM
  TGI: > 100 µM
[10]
  GI50: 35.9 µM
  TGI: > 100 µM
[11]
  GI50: 18.2 µM
  TGI: 36.2 µM
[12]
  GI50: 22.8 µM
  TGI: 50.3 µM
[13]
  GI50: 18.6 µM
  TGI: 35.3 µM
[14]
  GI50: 26.1 µM
  TGI: 66.8 µM
[15]
  GI50: 17.2 µM
  TGI: 50.6 µM
[16]
  GI50: 48.4 µM
  TGI: > 100 µM
[17]
  GI50: 54.3 µM
  TGI: > 100 µM
[18]
  GI50: 21.3 µM
  TGI: 44 µM
[19]
  GI50: 17.2 µM
  TGI: 33 µM
[20]
  GI50: 17.9 µM
  TGI: 31.9 µM
[21]
  GI50: 17.8 µM
  TGI: 37.1 µM
[22]
  GI50: 23.6 µM
  TGI: 58.1 µM
[23]
  GI50: 21.4 µM
  TGI: 40 µM
[24]
  GI50: 19.3 µM
  TGI: 49.4 µM
[25]
  GI50: 17.9 µM
  TGI: 33.8 µM
[26]
  GI50: 17.6 µM
  TGI: 37.1 µM
[27]
  GI50: 18.8 µM
  TGI: 44.4 µM
[28]
  GI50: 20.3 µM
  TGI: 39.6 µM
[29]
  GI50: 34.4 µM
  TGI: > 100 µM
[30]
  GI50: 15.3 µM
  TGI: 31.3 µM
[31]
  GI50: 19.4 µM
  TGI: 39.7 µM
[32]
  GI50: > 100 µM
  TGI: > 100 µM
[33]
  GI50: 27.1 µM
  TGI: > 100 µM
[34]
  GI50: 18.2 µM
  TGI: 39.3 µM
[35]
  GI50: 23.9 µM
  TGI: 65.3 µM
[36]
  GI50: 23.2 µM
  TGI: 47.6 µM
[37]
  GI50: 19.5 µM
  TGI: 41.1 µM
[38]
  GI50: 19.3 µM
  TGI: 49.7 µM
[39]
  GI50: 25.1 µM
  TGI: 60.7 µM
[40]
  GI50: 21.2 µM
  TGI: 38 µM
[41]
  GI50: 49.1 µM
  TGI: > 100 µM
[42]
  GI50: 16.3 µM
  TGI: 31.6 µM
[43]
  GI50: 64.4 µM
  TGI: > 100 µM
[44]
  GI50: 20.9 µM
  TGI: 47.2 µM
[45]
  GI50: 42.5 µM
  TGI: > 100 µM
[46]
  GI50: > 100 µM
  TGI: > 100 µM
[47]
  GI50: 33.7 µM
  TGI: > 100 µM
[48]
  GI50: 66 µM
  TGI: > 100 µM
[49]
  GI50: 33.6 µM
  TGI: > 100 µM
[50]
  GI50: 22.1 µM
  TGI: 48.8 µM
[51]
  GI50: 16.2 µM
  TGI: 37.1 µM
[52]
  GI50: 19.4 µM
  TGI: 43.6 µM

## COc1cccc2c1C(=O)c1c(O)c3c(c(O)c1C2=O)C[C@@](O)(/C(C)=N/NC(=O)c1ccc(Cl)c(Cl)c1)C[C@@H]3OC1CC(N)C(O)C(C)O1 (some centres not stated)
[1]
  TGI: 2.1 µM
[3]
  TGI: 2.68 µM
[4]
  TGI: 0.256 µM
[6]
  TGI: 0.562 µM
[8]
  TGI: 1.5 µM
[10]
  TGI: 7.4 µM
[12]
  TGI: 1.04 µM
[13]
  TGI: 1.16 µM
[53]
  TGI: 0.397 µM
[14]
  TGI: 1.28 µM
[16]
  TGI: 3.18 µM
[17]
  TGI: 0.379 µM
[54]
  TGI: > 100 µM
[18]
  TGI: 1.06 µM
[19]
  TGI: 0.624 µM
[21]
  TGI: 1.2 µM
[22]
  TGI: 0.0838 µM
[23]
  TGI: > 100 µM
[24]
  TGI: 2.51 µM
[25]
  TGI: 1.11 µM
[27]
  TGI: 0.231 µM
[28]
  TGI: 0.618 µM
[29]
  TGI: > 100 µM
[55]
  TGI: 2.84 µM
[31]
  TGI: 0.934 µM
[33]
  TGI: 0.686 µM
[38]
  TGI: 0.527 µM
[41]
  TGI: 0.274 µM
[44]
  TGI: 0.877 µM
[45]
  TGI: 0.445 µM
[46]
  TGI: 2.02 µM
[47]
  TGI: 1.35 µM
[48]
  TGI: > 100 µM
[49]
  TGI: 1.83 µM
[50]
  TGI: 0.363 µM
[56]
  TGI: 1.05 µM
[51]
  TGI: 0.34 µM
[52]
  TGI: > 100 µM

## CC(C)CC(NC(=O)OC(C)(C)C)C(=O)NC(CCC(=O)OCc1ccccc1)C(N)=O (stereo not drawn) (Boc-Leu-Glu(OBn)-NH2; configuration not given here)
[2]
  GI50: 45.5 µg/mL
[8]
  GI50: 87.1 µg/mL
[18]
  GI50: 54.1 µg/mL
[21]
  GI50: 32.7 µg/mL
[22]
  GI50: 32.2 µg/mL
[30]
  GI50: 29.4 µg/mL
[32]
  GI50: 34.8 µg/mL
[36]
  GI50: 43.9 µg/mL
[41]
  GI50: 20.8 µg/mL
  TGI: 51.4 µg/mL
[46]
  GI50: 32.7 µg/mL
[56]
  GI50: 20.1 µg/mL (≈ 44.7 µM)
  TGI: 85.9 µg/mL
[51]
  GI50: 47.9 µg/mL
[52]
  GI50: 85.5 µg/mL

Source: PubChem BioAssay (NCI)
